{"source": "patent US7642235B2", "about": "“Macrocyclic peptides active against the hepatitis C virus” (Boehringer Ingelheim International GmbH, priority 2003, dated 2010)", "origin": "cited, not measured here", "system": "hepatitis C virus", "conditions": "two day clinical trial; Nature (2003) 426, p.186-189", "data": [{"smiles": "COc1ccc2c(O[C@@H]3C[C@H]4C(=O)N[C@]5(C(=O)O)C[C@H]5/C=C\\CCCCC[C@H](NC(=O)OC5CCCC5)C(=O)N4C3)cc(-c3csc(NC(C)C)n3)nc2c1", "note": "[BILN 2061]", "values": [{"measurement": "viral loads in patients infected with the hepatitis C virus", "value": "effective in rapidly reducing viral loads"}]}]}
